This note sets out measurements from PMC13659687, “Cloning, expression, tertiary structure, activity characteristics, design of inhibitor, hydrolysis and inhibition mechanisms analysis of carp adipose triglyceride lipase (ATGL)” (Food Chemistry: Molecular Sciences, 2026).

Where a SMILES comes first, the peptide text is derived from it.

The data set in a line: Maximum solubility of the small peptide. The conditions noted are these: neutral pH. It is filed as physicochemical.

In the case of `CC[C@H](C)[C@H](NC(=O)[C@H](CC(C)C)NC(=O)[C@@H](N)CCCCN)C(=O)N[C@@H](CCSC)C(=O)N[C@H](C(=O)O)C(C)C` [Lys-Leu-Ile-Met-Val] (H-KLIMV-OH), the maximum solubility entry (4 °C) is “approximately 0.4 mg/mL” and the maximum solubility result (room temperature) is recorded as “approximately 0.7 mg/mL”.
